The values that follow come from patent US10315990B2, “Isothiocyanate compounds and isothiocyanate XPO1 protein inhibitor drugs thereof” (DRIVINGFORCE THERAPEUTICS Co., Ltd., priority 2015, dated 2019).

pIC50: −log10 of the molar value.

In assay [1] the test system is KYSE-70. The assay can be described thus: Inhibitory activity for other high metastasis type cancer cell line (MTT or CCK-8). Type of assay: cell-based. The settings on record: Homo sapiens; KYSE-70, 72 hours; read-out: IC50.
The subject of assay [2] is 786-O. The assay is described as above. The settings on record: Homo sapiens, 786-0; 786-O, 72 hours; read-out: IC50. Type of assay: cell-based.
Assay [3] deals with Saos-2. The description is as above. Type of assay: cell-based. Particulars: Homo sapiens; Saos-2, 72 hours; read-out: IC50.
The target of assay [4] is T1, XPO1 protein (Homo sapiens, UniProt O14980).
T1 construct: Sixteen hours later, NES-GFP plasmid was transfected with liposome; endogenous in cells
T1 sequence (O14980 whole entry, species assumed): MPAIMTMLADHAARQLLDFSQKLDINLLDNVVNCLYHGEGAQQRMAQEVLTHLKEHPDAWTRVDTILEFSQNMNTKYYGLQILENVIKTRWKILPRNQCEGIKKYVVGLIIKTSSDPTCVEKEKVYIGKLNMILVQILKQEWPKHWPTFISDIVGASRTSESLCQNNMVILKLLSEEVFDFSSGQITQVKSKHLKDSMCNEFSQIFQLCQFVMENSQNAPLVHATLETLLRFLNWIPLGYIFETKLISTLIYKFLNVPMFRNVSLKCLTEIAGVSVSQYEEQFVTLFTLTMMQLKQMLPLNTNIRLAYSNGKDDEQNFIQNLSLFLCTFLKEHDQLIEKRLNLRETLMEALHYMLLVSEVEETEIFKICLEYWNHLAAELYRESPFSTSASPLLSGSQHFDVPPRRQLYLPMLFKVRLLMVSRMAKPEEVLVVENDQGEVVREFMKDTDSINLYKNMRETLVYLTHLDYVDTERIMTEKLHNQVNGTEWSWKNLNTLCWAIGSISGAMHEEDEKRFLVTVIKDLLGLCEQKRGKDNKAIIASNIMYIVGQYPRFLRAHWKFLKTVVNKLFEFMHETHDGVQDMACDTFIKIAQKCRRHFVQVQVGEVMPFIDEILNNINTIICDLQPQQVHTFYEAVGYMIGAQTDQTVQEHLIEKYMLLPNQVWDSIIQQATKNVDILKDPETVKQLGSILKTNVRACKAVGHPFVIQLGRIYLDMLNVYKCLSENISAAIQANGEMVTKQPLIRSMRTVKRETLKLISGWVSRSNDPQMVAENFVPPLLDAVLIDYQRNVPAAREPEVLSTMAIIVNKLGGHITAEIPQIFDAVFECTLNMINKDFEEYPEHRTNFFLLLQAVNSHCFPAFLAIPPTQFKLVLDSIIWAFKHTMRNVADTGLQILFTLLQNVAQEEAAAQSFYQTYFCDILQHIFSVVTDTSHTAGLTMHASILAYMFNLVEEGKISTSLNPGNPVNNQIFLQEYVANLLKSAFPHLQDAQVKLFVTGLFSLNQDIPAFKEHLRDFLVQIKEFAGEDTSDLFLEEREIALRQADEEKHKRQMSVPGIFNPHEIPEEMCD
The assay can be described thus: Inhibitory activity for XPO1 protein (NES-GFP nuclear export, laser confocal microscope). Type of assay: cell-based. Particulars: NES-GFP nuclear export, cells treated for 2 hours.

For assay [5], the system named is HMLE-Snail cell line. The assay can be described thus: Formation of HMLE-Snail cell line spheroids. It is filed as cell-based. Particulars: 10 μg/ml, treated for 24 hours; control = 100; read-out: Colony (%): cell colony number of drug-treated group/cell colony number of control group × 100%.
Assay [6] relates to CaSki. The assay can be described thus: Inhibitory activity for other high metastasis type cancer cell line (MTT or CCK-8). Type of assay: cell-based. Particulars: Homo sapiens, Ca-Ski; CaSki, 72 hours; read-out: IC50.
Assay [7] relates to A2780. The assay can be described thus: Inhibitory activity for high metastasis type ovarian cancer cell line (MTT or CCK-8). It is filed as cell-based. The settings on record: Homo sapiens; A2780, 72 hours; read-out: IC50. The procedure: (§1) The two cell lines were inoculated on 96-well cell culture plate in an amount of 6000 cells per well and cultured at 37° C. for 24 hours, and then treated solely with the representative compound added therein and cultured. Seventy-two hours later, MTT or CCK-8 method was used to detect the inhibitory activity of the representative compound for the high metastasis type ovarian cancer cell lines.

The test system of assay [8] is HO-8910. The description is as above. It is filed as cell-based. The settings on record: HO-8910, 72 hours; read-out: IC50. The procedure: as §1
Assay [9] deals with Jeko-1. As to the kind of experiment: Inhibitory activity for high metastasis type lymphoma cell line (MTT or CCK-8). Type of assay: cell-based. The settings on record: Homo sapiens; Jeko-1, 72 hours; read-out: IC50.
Assay [10] concerns U2932. The description is as above. It is filed as cell-based. The settings on record: Homo sapiens; U2932, 72 hours; read-out: IC50.
Assay [11] deals with Raji. The assay is described as above. Particulars: Homo sapiens, 72 hours, read-out: IC50. It is filed as cell-based.
In assay [12] the test system is NCI-H1975. The assay can be described thus: cells. It is filed as cell-based. The settings on record: Homo sapiens; NCI-H1975, 72 hours; read-out: IC50.
Assay [13] concerns NCI-H1650. As to the kind of experiment: cells. It is filed as cell-based. Particulars: Homo sapiens; NCI-H1650, 72 hours; read-out: IC50.
Assay [14] concerns HCT116. The assay can be described thus: Inhibitory activity for high metastasis type colon cancer cell line (MTT or CCK-8). Type of assay: cell-based. Particulars: Homo sapiens, HCT-116; HCT116, 72 hours; read-out: IC50.
For assay [15], the system named is SW620. The assay is described as above. It is filed as cell-based. The settings on record: Homo sapiens, SW-620; SW620, 72 hours; read-out: IC50.
In assay [16] the test system is TNF-α. As to the kind of experiment: Serum TNF-α level of IBD animal model (ELISA). It is filed as in vivo, SD rats. Particulars: 80 mg/kg, three days after making the TNBS model. The text has this:
Inflammatory bowel disease is an autoimmune disease. […] The therapeutic effect of the representative compound for the immune system disease or inflammation can be assessed by detecting change in levels of some important cytokines such as TNF-α and IL-6 at downstream of the signal path.
Background: An ELISA detects its analyte on a solid surface through an enzyme-linked reagent.

Broadly, the pIC50 is the negative decadic logarithm of the IC50, by convention in mol/L. Turning to `C[S+]([O-])CCCCN=C=S` (stereo not drawn) [SFN, sulforaphane, reference compound], the pIC50 in [1] was 4.95; in [2], 4.99; in assay [3], 4.84; in assay [6], 4.96; in assay [7], 4.63; in assay [8], 4.67. The pIC50 in [9] was 5.00; in assay [10], 4.87; in [11], 4.96; in assay [12], 4.69; in assay [13], 4.74; in assay [14] it was 4.88. Moreover, the pIC50 in assay [15] is 4.82. The “Activity (μM): inhibitory activity for XPO1 protein (full inhibitory concentration)” value in assay [4] was 35 µM. Besides, the activity at 10 µg/mL in assay [5] was 90%. Further, the “Serum TNF-α level, Animal-1” value in assay [16] (Animal-1) stood at 2.1 ng/mL. For the same molecule, the “Serum TNF-α level, Animal-2” value in [16] (Animal-2) was found to be 1.8 ng/mL. Besides, the “Serum TNF-α level, Animal-3” value in assay [16] (Animal-3) is 2.1 ng/mL.
